Measured values as given in paper PMC11822212, “High-throughput screening identifies Aurora kinase B as a critical therapeutic target for Merkel cell carcinoma” (Nature Communications, 2025).
Where a name gives a salt, the structure may show the parent alone. Read-outs that look alike come from different tables or passages of the source.

Legend:
MKL-2 cells (VP-MCC) = assay: qHTS cell viability (CellTiter-Glo, 72 h; primary and follow-up small molecule screen); assay type: cell-based, human
WAGA cells (VP-MCC) = assay: as above; assay type: cell-based, human
[1] = tested on: MCC cell lines (WAGA, MKL-1, MKL-2, MCC13, MCC26, UISO); assay: qHTS cell viability, all six MCC cell lines as a group (mean AUC, MCC.avg); assay type: cell-based, human
[2] = tested on: control cell lines (HACAT, HEK293T, CRL-7250, NIH-3T3); assay: qHTS cell viability, control cell lines as a group (mean AUC, Control.avg); assay type: cell-based
[3] = tested on: six MCC cell lines and four control cell lines; assay: qHTS cell viability, all 10 cell lines screened; assay type: cell-based
NIH-3T3 cells = assay: qHTS cell viability (CellTiter-Glo, 72 h; primary screen), control cell line; assay type: cell-based, mouse
HACAT cells = assay: as above; assay type: cell-based, human
UISO cells (VN-MCC) = assay: qHTS cell viability (CellTiter-Glo, 72 h; primary and follow-up small molecule screen); assay type: cell-based, human
[4] = tested on: VP-MCC cell lines (WAGA, MKL-1, MKL-2); assay: qHTS cell viability, VP-MCC cell lines as a group (mean AUC, VP.MCC.avg); assay type: cell-based, human
CRL-7250 cells = assay: qHTS cell viability (CellTiter-Glo, 72 h; primary screen), control cell line; assay type: cell-based
MCC13 cells (VN-MCC) = assay: qHTS cell viability (CellTiter-Glo, 72 h; primary and follow-up small molecule screen); assay type: cell-based, human
MCC26 cells (VN-MCC) = assay: as above; assay type: cell-based, human
HEK293T cells = assay: qHTS cell viability (CellTiter-Glo, 72 h; primary screen), control cell line; assay type: cell-based, human
[5] = tested on: VN-MCC cell lines (MCC13, MCC26, UISO); assay: qHTS cell viability, VN-MCC cell lines as a group (mean AUC, VN.MCC.avg); assay type: cell-based, human
MKL-1 cells (VP-MCC) = assay: qHTS cell viability (CellTiter-Glo, 72 h; primary and follow-up small molecule screen); assay type: cell-based, human
[6] = NPC library, qHTS dose-response AUC, MKL2
[7] = NPC library, qHTS dose-response AUC, WAGA
[8] = NPC library, mean AUC of six MCC cell lines
[9] = NPC library, mean AUC of control cell lines
[10] = NPC library, therapeutic window: Control avg AUC minus MCC avg AUC
[11] = NPC library, qHTS dose-response AUC, NIH3T3 control
[12] = NPC library, qHTS dose-response AUC, HACAT control
[13] = NPC library, qHTS dose-response AUC, UISO
[14] = NPC library, mean AUC of VP-MCC cell lines
[15] = NPC library, therapeutic window: Control avg AUC minus VP-MCC avg AUC
[16] = NPC library, qHTS dose-response AUC, CRL7250 control
[17] = NPC library, qHTS dose-response AUC, MCC13
[18] = NPC library, qHTS dose-response AUC, MCC26
[19] = NPC library, qHTS dose-response AUC, HEK293T control
[20] = NPC library, mean AUC of VN-MCC cell lines
[21] = NPC library, therapeutic window: Control avg AUC minus VN-MCC avg AUC
[22] = NPC library, qHTS dose-response AUC, MKL1

SMILES | MKL2_AUC (MKL-2 cells (VP-MCC); [6]) | WAGA_AUC (WAGA cells (VP-MCC); [7]) | MCC_Avg_AUC [1, 8] | Control_Avg_AUC [2, 9] | Control-MCC [3, 10] | NIH3T3_AUC (NIH-3T3 cells; [11]) | HACAT_AUC (HACAT cells; [12]) | UISO_AUC (UISO cells (VN-MCC); [13]) | VP-MCC_Avg_AUC [4, 14] | Control-VP-MCC [4, 15] | CRL7250_AUC (CRL-7250 cells; [16]) | MCC13_AUC (MCC13 cells (VN-MCC); [17]) | MCC26_AUC (MCC26 cells (VN-MCC); [18]) | HEK293T_AUC (HEK293T cells; [19]) | VN-MCC_Avg_AUC [5, 20] | Control-VN-MCC [5, 21] | MKL1_AUC (MKL-1 cells (VP-MCC); [22]) | also measured
CC[N+]1(CC)CCC(=C(c2ccccc2)c2ccccc2)C1C (centres unmarked) [Prifinium bromide] | 411.638 | 419.066 | 443.502 | 468.3 | 24.7984 | 466.796 | 452.968 | 446.738 | 414.775 | 53.5255 | 489.513 | 477.436 | 492.512 | 463.923 | 472.229 | -3.929 | 413.62 | –
COc1cc(NC(C)CCCN)c2ncccc2c1 (centres unmarked) [Primaquine diphosphate] | – | – | – | – | – | – | – | – | – | – | – | – | – | – | – | – | – | MKL2_AUC (MKL-2 cells (VP-MCC)): 418.75; WAGA_AUC (WAGA cells (VP-MCC)): 404.704; MCC_Avg_AUC [1]: 438.799; Control_Avg_AUC [2]: 479.001; Control-MCC [3]: 40.202; NIH3T3_AUC (NIH-3T3 cells): 490.172; HACAT_AUC (HACAT cells): 484.209; UISO_AUC (UISO cells (VN-MCC)): 458.954; Control-VP-MCC [4]: 69.0896; VP-MCC_Avg_AUC [4]: 409.912; CRL7250_AUC (CRL-7250 cells): 485.915; MCC13_AUC (MCC13 cells (VN-MCC)): 448.24; MCC26_AUC (MCC26 cells (VN-MCC)): 495.867; HEK293T_AUC (HEK293T cells): 455.709; Control-VN-MCC [5]: 11.3144; VN-MCC_Avg_AUC [5]: 467.687; MKL1_AUC (MKL-1 cells (VP-MCC)): 406.282
CCCC(C(=O)OCCN(CC)CC)(c1ccccc1)c1ccccc1 [Proadifen hydrochloride] | 398.333 | 421.101 | 413.175 | 459.893 | 46.7182 | 451.129 | 477.751 | 416.723 | 400.877 | 59.0165 | 484.159 | 446.167 | 413.531 | 426.534 | 425.473 | 34.42 | 383.197 | –
O=C(CCN1CCC(c2ccccc2)C1)c1ccc2c(c1)OCCO2 (centres unmarked) [Proroxan] | 379.094 | 401.693 | 440.324 | 461.46 | 21.1361 | 459.69 | 483.91 | 463.935 | 394.094 | 67.3656 | 469.26 | 464.203 | 531.522 | 432.979 | 486.553 | -25.0934 | 401.495 | Area under the dose-response curve (AUC) MKL-2 Replicate 1 (MKL-2 cells (VP-MCC); follow-up screen, MKL-2, replicate 1): 423.0; Area under the dose-response curve (AUC) MKL-2 Replicate 2 (MKL-2 cells (VP-MCC); follow-up screen, MKL-2, replicate 2): 412.3; Area under the dose-response curve (AUC) MKL-2 Replicate 3 (MKL-2 cells (VP-MCC); follow-up screen, MKL-2, replicate 3): 429.1; Area under the dose-response curve (AUC) WAGA Replicate 1 (WAGA cells (VP-MCC); follow-up screen, WAGA, replicate 1): 471.3; Area under the dose-response curve (AUC) WAGA Replicate 2 (WAGA cells (VP-MCC); follow-up screen, WAGA, replicate 2): 460.1; Area under the dose-response curve (AUC) WAGA Replicate 3 (WAGA cells (VP-MCC); follow-up screen, WAGA, replicate 3): 475.6; Area under the dose-response curve (AUC) UISO Replicate 1 (UISO cells (VN-MCC); follow-up screen, UISO, replicate 1): 440.8; Area under the dose-response curve (AUC) UISO Replicate 2 (UISO cells (VN-MCC); follow-up screen, UISO, replicate 2): 468.5; Area under the dose-response curve (AUC) UISO Replicate 3 (UISO cells (VN-MCC); follow-up screen, UISO, replicate 3): 484.4; Area under the dose-response curve (AUC) MCC13 Replicate 1 (MCC13 cells (VN-MCC); follow-up screen, MCC13, replicate 1): 493.7; Area under the dose-response curve (AUC) MCC13 Replicate 2 (MCC13 cells (VN-MCC); follow-up screen, MCC13, replicate 2): 500.7; Area under the dose-response curve (AUC) MCC13 Replicate 3 (MCC13 cells (VN-MCC); follow-up screen, MCC13, replicate 3): 474.6; Area under the dose-response curve (AUC) MCC26 Replicate 1 (MCC26 cells (VN-MCC); follow-up screen, MCC26, replicate 1): 461.4; Area under the dose-response curve (AUC) MCC26 Replicate 2 (MCC26 cells (VN-MCC); follow-up screen, MCC26, replicate 2): 445.0; Area under the dose-response curve (AUC) MCC26 Replicate 3 (MCC26 cells (VN-MCC); follow-up screen, MCC26, replicate 3): 478.9; Area under the dose-response curve (AUC) MKL-1 Replicate 1 (MKL-1 cells (VP-MCC); follow-up screen, MKL-1, replicate 1): 420.7; Area under the dose-response curve (AUC) MKL-1 Replicate 2 (MKL-1 cells (VP-MCC); follow-up screen, MKL-1, replicate 2): 440.6; Area under the dose-response curve (AUC) MKL-1 Replicate 3 (MKL-1 cells (VP-MCC); follow-up screen, MKL-1, replicate 3): 412.1
